Laboratory results reported in patent US8822503B2, “2-pyridone compounds” (Taisho Pharmaceutical Co., Ltd, priority 2009, dated 2014).

Target: T1, human liver GK (Homo sapiens, UniProt P35557)
T1 construct: GST (glutathione S-transferase) (N); made in house; host or cells: E. coli
T1 sequence (P35557 1-466 isoform P35557-2): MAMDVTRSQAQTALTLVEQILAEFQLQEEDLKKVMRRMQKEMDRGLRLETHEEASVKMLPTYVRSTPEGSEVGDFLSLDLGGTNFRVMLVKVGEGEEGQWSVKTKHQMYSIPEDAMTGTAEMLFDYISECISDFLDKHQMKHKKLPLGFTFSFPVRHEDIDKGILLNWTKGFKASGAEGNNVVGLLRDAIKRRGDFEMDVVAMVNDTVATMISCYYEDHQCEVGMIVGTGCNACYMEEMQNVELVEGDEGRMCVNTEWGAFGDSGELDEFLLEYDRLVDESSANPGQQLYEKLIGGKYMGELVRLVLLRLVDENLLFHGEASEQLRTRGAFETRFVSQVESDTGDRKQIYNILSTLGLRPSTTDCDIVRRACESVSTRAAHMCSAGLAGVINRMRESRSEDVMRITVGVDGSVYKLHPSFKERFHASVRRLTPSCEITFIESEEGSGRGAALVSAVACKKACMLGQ
Test: GK activation test
Assay type: biochemical
Settings: test compound concentration needed to activate 50% of maximum activation ability; 4 mM 14C-labeled glucose, 2 mM ATP, room temperature, 20 minutes
In short: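 GST-tagged human liver GK from E. coli (0.24 μg/well) with 4 mM 14C-glucose, 2 mM ATP in Hepes-KOH pH 7.1, KCl, MgCl2, DTT, 1% DMSO, 20 min room temperature. Labeled glucose 6-phosphate captured on anion resin, eluted and counted. EC50 = concentration giving half of maximal activation.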

Compound | EC50 [nM]
CCc1ccc(/C(=C\[C@H]2CCC(=O)N2)c2ccc(C3CC3)c(=O)[nH]2)cc1 [Example 4-5, 3-Cyclopropyl-6-{(E)-1-(4-ethylphenyl)-2-[(2R)-5-oxopyrrolidin-2-yl]ethenyl}pyridin-2(1H)-one] | 10 to 500
CCOc1ccc(/C(=C\[C@H]2CCC(=O)N2)c2ccc(C3CC3)c(=O)[nH]2)cc1 [Example 4-6, 3-Cyclopropyl-6-{(E)-1-(4-ethoxyphenyl)-2-[(2R)-5-oxopyrrolidin-2-yl]ethenyl}pyridin-2(1H)-one] | 10 to 500
CCOc1cccc(/C(=C\[C@H]2CCC(=O)N2)c2ccc(C3CC3)c(=O)[nH]2)c1 [Example 4-7, 3-Cyclopropyl-6-{(E)-1-(3-ethoxyphenyl)-2-[(2R)-5-oxopyrrolidin-2-yl]ethenyl}pyridin-2(1H)-one] | 500 to 3000
O=C1CC[C@H](/C=C(\c2cccc(OCCCO)c2)c2ccc(C3CC3)c(=O)[nH]2)N1 [Example 4-8, 3-Cyclopropyl-6-{(E)-1-[3-(3-hydroxypropoxy)phenyl]-2-[(2R)-5-oxopyrrolidin-2-yl]ethenyl}pyridin-2(1H)-one] | 500 to 3000
O=C1CC[C@H](/C=C(\c2cccc(OCCCCO)c2)c2ccc(C3CC3)c(=O)[nH]2)N1 [Example 4-9, 3-Cyclopropyl-6-{(E)-1-[3-(4-hydroxybutoxy)phenyl]-2-[(2R)-5-oxopyrrolidin-2-yl]ethenyl}pyridin-2(1H)-one] | 500 to 3000
CCOc1ccc(/C(=C\[C@H]2CCC(=O)N2)c2ccc(C3CC3)c(=O)[nH]2)cc1Cl [Example 4-10, 6-{(E)-1-(3-Chloro-4-ethoxyphenyl)-2-[(2R)-5-oxopyrrolidin-2-yl]ethenyl}-3-cyclopropylpyridin-2(1H)-one] | 10 to 500
O=C1CC[C@H](/C=C(\c2ccc(OCCCCO)c(Cl)c2)c2ccc(C3CC3)c(=O)[nH]2)N1 [Example 4-11, 6-{(E)-1-[3-Chloro-4-(4-hydroxybutoxy)phenyl]-2-[(2R)-5-oxopyrrolidin-2-yl]ethenyl}-3-cyclopropylpyridin-2(1H)-one] | 10 to 500
Cc1cc(/C(=C\[C@H]2CCC(=O)N2)c2ccc(C3CC3)c(=O)[nH]2)ccc1SC1CC1 [Example 4-12, 3-Cyclopropyl-6-{(E)-1-[4-(cyclopropylsulfanyl)-3-methylphenyl]-2-[(2R)-5-oxopyrrolidin-2-yl]ethenyl}pyridin-2(1H)-one] | 10 to 500
O=C1CC[C@H](/C=C(\c2ccc(SC3CC3)c(Cl)c2)c2ccc(Cl)c(=O)[nH]2)N1 [Example 4-13, 3-Chloro-6-{(E)-1-[3-chloro-4-(cyclopropylsulfanyl)phenyl]-2-[(2R)-5-oxopyrrolidin-2-yl]ethenyl}pyridin-2(1H)-one] | 10 to 500
CCc1ccc(/C(=C\[C@H]2CCC(=O)N2)c2ccc(Cl)c(=O)[nH]2)cc1 [Example 4-14, 3-Chloro-6-{(E)-1-(4-ethylphenyl)-2-[(2R)-5-oxopyrrolidin-2-yl]ethenyl}pyridin-2(1H)-one] | 500 to 3000
CC(C)c1ccc(/C(=C\[C@H]2CCC(=O)N2)c2ccc(Cl)c(=O)[nH]2)cc1 [Example 4-15, 3-Chloro-6-{(E)-2-[(2R)-5-oxopyrrolidin-2-yl]-1-[4-(propan-2-yl)phenyl]ethenyl}pyridin-2(1H)-one] | 10 to 500
CCCc1ccc(/C(=C\[C@H]2CCC(=O)N2)c2ccc(Cl)c(=O)[nH]2)cc1 [Example 4-16, 3-Chloro-6-[(E)-2-[(2R)-5-oxopyrrolidin-2-yl]-1-(4-propylphenyl)ethenyl]pyridin-2(1H)-one] | 500 to 3000
CCCCc1ccc(/C(=C\[C@H]2CCC(=O)N2)c2ccc(Cl)c(=O)[nH]2)cc1 [Example 4-17, 6-{(E)-1-(4-Butylphenyl)-2-[(2R)-5-oxopyrrolidin-2-yl]ethenyl}-3-chloropyridin-2(1H)-one] | 10 to 500
CC(C)(C)c1ccc(/C(=C\[C@H]2CCC(=O)N2)c2ccc(Cl)c(=O)[nH]2)cc1 [Example 4-18, 6-{(E)-1-(4-tert-Butylphenyl)-2-[(2R)-5-oxopyrrolidin-2-yl]ethenyl}-3-chloropyridin-2(1H)-one] | 10 to 500
O=C1CC[C@H](/C=C(\c2ccc(C(F)(F)F)cc2)c2ccc(Cl)c(=O)[nH]2)N1 [Example 4-19, 3-Chloro-6-{(E)-2-[(2R)-5-oxopyrrolidin-2-yl]-1-[4-(trifluoromethyl)phenyl]ethenyl}pyridin-2(1H)-one] | 500 to 3000
CC(C)CCOc1ccc(/C(=C\[C@H]2CCC(=O)N2)c2ccc(Cl)c(=O)[nH]2)cc1Cl [Example 4-20, 3-Chloro-6-{(E)-1-[3-chloro-4-(3-methylbutoxy)phenyl]-2-[(2R)-5-oxopyrrolidin-2-yl]ethenyl}pyridin-2(1H)-one] | 10 to 500

Compound | EC50 [nM]
CC(C)CCCOc1ccc(/C(=C\[C@H]2CCC(=O)N2)c2ccc(Cl)c(=O)[nH]2)cc1Cl [Example 4-21, 3-Chloro-6-{(E)-1-{3-chloro-4-[(4-methylpentyl)oxy]phenyl}-2-[(2R)-5-oxopyrrolidin-2-yl]ethenyl}pyridin-2(1H)-one] | 10 to 500
CC(C)COc1ccc(/C(=C\[C@H]2CCC(=O)N2)c2ccc(Cl)c(=O)[nH]2)cc1Cl [Example 4-22, 3-Chloro-6-{(E)-1-[3-chloro-4-(2-methylpropoxy)phenyl]-2-[(2R)-5-oxopyrrolidin-2-yl]ethenyl}pyridin-2(1H)-one] | 10 to 500
Cc1ccc(/C(=C\[C@H]2CCC(=O)N2)c2ccc(Cl)c(=O)[nH]2)cc1C [Example 4-23, 3-Chloro-6-{(E)-1-(3,4-dimethylphenyl)-2-[(2R)-5-oxopyrrolidin-2-yl]ethenyl}pyridin-2(1H)-one] | 500 to 3000
Cc1ccc(/C(=C\[C@H]2CCC(=O)N2)c2ccc(Cl)c(=O)[nH]2)cc1Cl [Example 4-24, 3-Chloro-6-{(E)-1-(3-chloro-4-methylphenyl)-2-[(2R)-5-oxopyrrolidin-2-yl]ethenyl}pyridin-2(1H)-one] | 500 to 3000
Cc1ccc(/C(=C\[C@H]2CCC(=O)N2)c2ccc(Cl)c(=O)[nH]2)cc1C(F)(F)F [Example 4-25, 3-Chloro-6-{(E)-1-[4-methyl-3-(trifluoromethyl)phenyl]-2-[(2R)-5-oxopyrrolidin-2-yl]ethenyl}pyridin-2(1H)-one] | 500 to 3000
O=C1CC[C@H](/C=C(\c2ccc(CCCCO)cc2)c2ccc(Cl)c(=O)[nH]2)N1 [Example 4-26, 3-Chloro-6-{(E)-1-[4-(4-hydroxybutyl)phenyl]-2-[(2R)-5-oxopyrrolidin-2-yl]ethenyl}pyridin-2(1H)-one] | 500 to 3000
CCSc1ccc(/C(=C\[C@H]2CCC(=O)N2)c2ccc(Cl)c(=O)[nH]2)cc1Cl [Example 4-27, 3-Chloro-6-{(E)-1-[3-chloro-4-(ethylsulfanyl)phenyl]-2-[(2R)-5-oxopyrrolidin-2-yl]ethenyl}pyridin-2(1H)-one] | 10 to 500
CC(C)COCCc1ccc(/C(=C\[C@H]2CCC(=O)N2)c2ccc(Cl)c(=O)[nH]2)cc1 [Example 4-28, 3-Chloro-6-{(E)-1-{4-[2-(2-methylpropoxy)ethyl]phenyl}-2-[(2R)-5-oxopyrrolidin-2-yl]ethenyl}pyridin-2(1H)-one] | 500 to 3000
CC(C)Cc1ccc(/C(=C\[C@H]2CCC(=O)N2)c2ccc(Cl)c(=O)[nH]2)cc1 [Example 4-29, 3-Chloro-6-{(E)-1-[4-(2-methylpropyl)phenyl]-2-[(2R)-5-oxopyrrolidin-2-yl]ethenyl}pyridin-2(1H)-one] | 500 to 3000
O=C1CC[C@H](/C=C(\c2ccc(OC(F)(F)F)cc2)c2ccc(Cl)c(=O)[nH]2)N1 [Example 4-30, 3-Chloro-6-{(E)-2-[(2R)-5-oxopyrrolidin-2-yl]-1-[4-(trifluoromethoxy)phenyl]ethenyl}pyridin-2(1H)-one] | 500 to 3000
Cc1ccc(/C(=C\[C@H]2CCC(=O)N2)c2ccc(Cl)c(=O)[nH]2)c(C)c1 [Example 4-31, 3-Chloro-6-{(E)-1-(2,4-dimethylphenyl)-2-[(2R)-5-oxopyrrolidin-2-yl]ethenyl}pyridin-2(1H)-one] | 3000 to 10000
CC(C)Oc1ccc(/C(=C\[C@H]2CCC(=O)N2)c2ccc(Cl)c(=O)[nH]2)cc1Cl [Example 4-32, 3-Chloro-6-{(E)-1-[3-chloro-4-(propan-2-yloxy)phenyl]-2-[(2R)-5-oxopyrrolidin-2-yl]ethenyl}pyridin-2(1H)-one] | 10 to 500
O=C1CC[C@H](/C=C(\c2ccc(SC3CCCC3)cc2)c2ccc(Cl)c(=O)[nH]2)N1 [Example 4-33, 3-Chloro-6-{(E)-1-[4-(cyclopentylsulfanyl)phenyl]-2-[(2R)-5-oxopyrrolidin-2-yl]ethenyl}pyridin-2(1H)-one] | 10 to 500
Cc1cc(/C(=C\[C@H]2CCC(=O)N2)c2ccc(Cl)c(=O)[nH]2)ccc1SC1CC1 [Example 4-34, 3-Chloro-6-{(E)-1-[4-(cyclopropylsulfanyl)-3-methylphenyl]-2-[(2R)-5-oxopyrrolidin-2-yl]ethenyl}pyridin-2(1H)-one] | 500 to 3000
CSc1ccc(/C(=C\[C@H]2CCC(=O)N2)c2ccc(Cl)c(=O)[nH]2)cc1C(F)(F)F [Example 4-35, 3-Chloro-6-{(E)-1-[4-(methylsulfanyl)-3-(trifluoromethyl)phenyl]-2-[(2R)-5-oxopyrrolidin-2-yl]ethenyl}pyridin-2(1H)-one] | 500 to 3000
